PMC6016474, “Structural and functional determination of homologs of the Mycobacterium tuberculosis N-acetylglucosamine-6-phosphate deacetylase (NagA)” (The Journal of Biological Chemistry, 2018)

Assays:
[1] = molecular target: T1, MMNagA (Mycobacterium marinum, UniProt B2HDT2); conditions: read-out: MST Kd; binder
T1 construct: gene nagA; full-length from gDNA, N-terminal His6 tag (pET28a, NdeI/HindIII), E. coli BL21(DE3) with Mtb GroES chaperone

[2] = molecular target: T2, MSNagA (Mycolicibacterium smegmatis, UniProt A0QU89, D267A); test: X-ray co-crystal structure, […] Å; assay type: binding; conditions: active site of chain A at dimer interface, Zn and Cd modelled, ligand occupancy 0.75
T2 construct: gene nagA; full-length, 385 residues, N-terminal His6 tag; expressed in M. smegmatis mc2 4517 (pYUB1062) for wild-type rows, in E. coli (pET28a) for D267A
T2 sequence (A0QU89 1-385 D267A): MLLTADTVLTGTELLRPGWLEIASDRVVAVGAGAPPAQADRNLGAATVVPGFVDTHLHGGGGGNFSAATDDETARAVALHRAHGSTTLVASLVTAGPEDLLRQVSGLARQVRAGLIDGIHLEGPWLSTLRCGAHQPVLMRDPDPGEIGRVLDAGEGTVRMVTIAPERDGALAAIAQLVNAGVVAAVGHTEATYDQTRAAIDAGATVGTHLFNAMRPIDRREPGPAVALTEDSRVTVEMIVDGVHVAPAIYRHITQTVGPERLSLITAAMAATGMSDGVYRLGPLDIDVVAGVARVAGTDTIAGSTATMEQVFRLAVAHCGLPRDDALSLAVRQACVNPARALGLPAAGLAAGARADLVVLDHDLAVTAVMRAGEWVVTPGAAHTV

T1 sequence (B2HDT2 entry or part of it): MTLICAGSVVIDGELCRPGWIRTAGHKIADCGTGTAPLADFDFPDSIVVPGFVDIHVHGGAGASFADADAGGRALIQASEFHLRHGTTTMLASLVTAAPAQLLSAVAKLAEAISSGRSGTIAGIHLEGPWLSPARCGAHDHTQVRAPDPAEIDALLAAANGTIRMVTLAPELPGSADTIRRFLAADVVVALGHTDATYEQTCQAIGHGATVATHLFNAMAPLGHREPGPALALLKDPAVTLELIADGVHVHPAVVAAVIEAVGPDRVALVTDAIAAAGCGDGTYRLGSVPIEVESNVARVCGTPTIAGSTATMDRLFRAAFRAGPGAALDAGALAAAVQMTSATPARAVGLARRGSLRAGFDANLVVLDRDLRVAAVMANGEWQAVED

Row | Structure (SMILES) | Kd [1] [µM] | X-ray co-crystal structure, 2.0 Å [2]
1 | CC(=O)N[C@H]1C(O)O[C@H](COP(=O)(O)O)[C@@H](O)[C@@H]1O (stereo partly drawn) [GlcNAc6P] | 1200 ± 50 | 6FV4 for the GlcNAc6P-MSNagA co-crystal structure
2 | CC(=O)N[C@@H]1C(O)O[C@H](COP(=O)(O)O)[C@@H](O)[C@@H]1O (stereo partly drawn) [ManNAc6P] | 3800 ± 300 | –
